Measured values: patent US10765114B2, “4-amino-6-(pyridyl and 2-substitutedphenyl)-picolinates and 6-amino-2-(pyridyl and 2-substitutedphenyl)-pyrimidine-4-carboxylates and their use as herbicides” (Dow AgroSciences LLC, priority 2013, dated 2020)

What was measured:
Experiment in all cases: Post-Emergent Test III (Wheat and Barley)
APESV (windgrass) = assay type: in vivo, Apera spica-venti; conditions: for pest or weed control at 35 g/ha / pest or weed control at 70 g/ha / pest or weed control at 140 g/ha: Apera spica-venti, post-emergence, 504 h, postemergence, read-out: Visual Growth Reduction (%) 21 Days After Application, APESV; for pest or weed control at 35 g/ha: 35 g ai/ha; for pest or weed control at 70 g/ha: 70 g ai/ha; for pest or weed control at 140 g/ha: 140 g ai/ha; for GR50, APESV: effective dose for growth reduction of 50 percent; for GR50, APESV / GR80, APESV / GR90, APESV: probit analysis; for GR80, APESV: effective dose for growth reduction of 80 percent; for GR90, APESV: effective dose for growth reduction of 90 percent
Method in brief: (§1)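 Test compounds, formulated in acetone/DMSO with aqueous crop oil concentrate and surfactant, were applied over the canopy at 187 L/ha at several serially halved rates. Subirrigated plants were scored for percent injury at 21 days, with GR10–GR90 derived by probit analysis.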

KCHSC (kochia) = assay type: in vivo, Kochia scoparia; conditions: for pest or weed control at 35 g/ha / pest or weed control at 70 g/ha / pest or weed control at 140 g/ha: Bassia scoparia, post-emergence, 504 h, postemergence, read-out: Visual Growth Reduction (%) 21 Days After Application, KCHSC; for pest or weed control at 35 g/ha: 35 g ai/ha; for pest or weed control at 70 g/ha: 70 g ai/ha; for pest or weed control at 140 g/ha: 140 g ai/ha; for GR50, KCHSC: effective dose for growth reduction of 50 percent; for GR50, KCHSC / GR80, KCHSC / GR90, KCHSC: probit analysis; for GR80, KCHSC: effective dose for growth reduction of 80 percent; for GR90, KCHSC: effective dose for growth reduction of 90 percent
Method in brief: as §1

POLCO (wild buckwheat) = assay type: in vivo, Polygonum convolvulus; conditions: for Visual Growth Reduction (%) 21 Days After Application, POLCO: postemergence; for GR50, POLCO: effective dose for growth reduction of 50 percent; for GR50, POLCO / GR80, POLCO / GR90, POLCO: probit analysis; for GR80, POLCO: effective dose for growth reduction of 80 percent; for GR90, POLCO: effective dose for growth reduction of 90 percent
Method: (§2) Seeds of the desired test plant species were planted in Sun Gro MetroMix® 306 planting mixture, which typically has a pH of 6.0 to 6.8 and an organic matter content of about 30 percent, in plastic pots with a surface area of 103.2 square centimeters (cm^2). When required to ensure good germination and healthy plants, a fungicide treatment and/or other chemical or physical treatment was applied. The plants were grown for 7-36 days in a greenhouse with an approximate 14 h photoperiod which was maintained at about 18° C. during the day and 17° C. during the night. Nutrients and water were added on a regular basis and supplemental lighting was provided with overhead metal halide 1000-Watt lamps as necessary. The plants were employed for testing when they reached the second or third true leaf stage.
(§3) A weighed amount, determined by the highest rate to be tested, of each test compound was placed in a 25 mL glass vial and was dissolved in 4 mL of a 97:3 v/v mixture of acetone and DMSO to obtain concentrated stock solutions. […] The concentrated stock solutions obtained were diluted with 20 mL of an aqueous mixture containing acetone, water, isopropyl alcohol, DMSO, Agri-Dex crop oil concentrate, and X-77 surfactant in a 48:39:10:1.5:1.5:0.02 v/v ratio to obtain spray solutions containing the highest application rates. Additional application rates were obtained by serial dilution of 12 mL of the high rate solution into a solution containing 2 mL of 97:3 v/v mixture of acetone and DMSO and 10 mL of an aqueous mixture containing acetone, water, isopropyl alcohol, DMSO, Agri-Dex crop oil concentrate, and X-77 surfactant in a 48:39:10:1.5:1.5:0.02 v/v ratio to obtain ½×, ¼×, ⅛× and 1/16× rates of the high rate. Compound requirements are based upon a 12 mL application volume at a rate of 187 liters per hectare (L/ha). Formulated compounds were applied to the plant material with an overhead Mandel track sprayer equipped with 8002E nozzles calibrated to deliver 187 L/ha over an application area of 0.503 square meters at a spray height of 18 inches (43 cm) above the average plant canopy height. Control plants were sprayed in the same manner with the solvent blank.
(§4) The treated plants and control plants were placed in a greenhouse as described above and watered by subirrigation to prevent wash-off of the test compounds. After 21 dAYS, the condition of the test plants as compared with that of the untreated plants was determined visually and scored on a scale of 0 to 100 percent where 0 corresponds to no injury and 100 corresponds to complete kill and presented as indicated in Table A.
(§5) By applying the well-accepted probit analysis as described by J. Berkson in Journal of the American Statistical Society, 48, 565 (1953) and by D. Finney in “Probit Analysis” Cambridge University Press (1952), herbicidal injury of a specific compound at various rates can be used to calculate GR10, GR20, GR50, GR80 and GR90 values, which are defined as growth reduction factors that correspond to the effective dose of herbicide required to provide plant growth reduction (GR) of 10 percent, 20 percent, 50 percent, 80 percent and 90 percent, respectively. Probit analysis was applied to data collected from multiple dose rates of individual compounds utilizing the procedures explained in the following examples. The analysis of those dose rates is captured in the following tables.

BRSSS = assay type: in vivo; conditions: for Visual Growth Reduction (%) 21 Days After Application, BRSSS: postemergence; for GR50, BRSSS: effective dose for growth reduction of 50 percent; for GR50, BRSSS / GR80, BRSSS / GR90, BRSSS: probit analysis; for GR80, BRSSS: effective dose for growth reduction of 80 percent; for GR90, BRSSS: effective dose for growth reduction of 90 percent
Method in brief: as §1

TRZSS = assay type: in vivo; conditions: for pest or weed control at 35 g/ha / pest or weed control at 70 g/ha / pest or weed control at 140 g/ha: Triticum aestivum, post-emergence, 504 h, postemergence, read-out: Visual Growth Reduction (%) 21 Days After Application, TRZSS; for pest or weed control at 35 g/ha: 35 g ai/ha; for pest or weed control at 70 g/ha: 70 g ai/ha; for pest or weed control at 140 g/ha: 140 g ai/ha; for GR10, TRZSS: effective dose for growth reduction of 10 percent; for GR10, TRZSS / GR20, TRZSS: probit analysis; for GR20, TRZSS: effective dose for growth reduction of 20 percent
Method in brief: as §1

HORSS = assay type: in vivo; conditions: for pest or weed control at 35 g/ha / pest or weed control at 70 g/ha / pest or weed control at 140 g/ha: Hordeum vulgare, post-emergence, 504 h, postemergence, read-out: Visual Growth Reduction (%) 21 Days After Application, HORSS; for pest or weed control at 35 g/ha: 35 g ai/ha; for pest or weed control at 70 g/ha: 70 g ai/ha; for pest or weed control at 140 g/ha: 140 g ai/ha; for GR10, HORSS: effective dose for growth reduction of 10 percent; for GR10, HORSS / GR20, HORSS: probit analysis; for GR20, HORSS: effective dose for growth reduction of 20 percent
Method in brief: as §1

[1] = test system: LAMPU (purple deadnettle); assay type: in vivo, Lamium purpureum; conditions: for Visual Growth Reduction (%) 21 Days After Application, LAMPU: postemergence; for GR50, LAMPU: effective dose for growth reduction of 50 percent; for GR50, LAMPU / GR80, LAMPU / GR90, LAMPU: probit analysis; for GR80, LAMPU: effective dose for growth reduction of 80 percent; for GR90, LAMPU: effective dose for growth reduction of 90 percent
Method: as §2, §3, §4, §5

Cc1c(-c2cc(N)c(Cl)c(C(=O)O)n2)ccc(Cl)c1F [Compound 52]
pest or weed control at 35 g/ha (APESV (windgrass)): 60 to 74%
pest or weed control at 70 g/ha (APESV (windgrass)): 75 to 84%
pest or weed control at 140 g/ha (APESV (windgrass)): 85 to 94%
GR50, APESV (APESV (windgrass)): 23 g ai/ha
GR80, APESV (APESV (windgrass)): 63 g ai/ha
GR90, APESV (APESV (windgrass)): 107 g ai/ha
pest or weed control at 35 g/ha (KCHSC (kochia)): 95 to 100%
pest or weed control at 70 g/ha (KCHSC (kochia)): 95 to 100%
pest or weed control at 140 g/ha (KCHSC (kochia)): 95 to 100%
GR50, KCHSC (KCHSC (kochia)): 1 g ai/ha
GR80, KCHSC (KCHSC (kochia)): 3 g ai/ha
GR90, KCHSC (KCHSC (kochia)): 9 g ai/ha
Visual Growth Reduction (%) 21 Days After Application, POLCO (POLCO (wild buckwheat); 35 g ai/ha): D (60-74)
Visual Growth Reduction (%) 21 Days After Application, POLCO (POLCO (wild buckwheat); 70 g ai/ha): C (75-84)
Visual Growth Reduction (%) 21 Days After Application, POLCO (POLCO (wild buckwheat); 140 g ai/ha): A (95-100)
GR50, POLCO (POLCO (wild buckwheat)): 10 g ai/ha
GR80, POLCO (POLCO (wild buckwheat)): 41 g ai/ha
GR90, POLCO (POLCO (wild buckwheat)): 84 g ai/ha
Visual Growth Reduction (%) 21 Days After Application, BRSSS (BRSSS; 35 g ai/ha): B (85-94)
Visual Growth Reduction (%) 21 Days After Application, BRSSS (BRSSS; 70 g ai/ha): B (85-94)
Visual Growth Reduction (%) 21 Days After Application, BRSSS (BRSSS; 140 g ai/ha): B (85-94)
GR50, BRSSS (BRSSS): 1 g ai/ha
GR80, BRSSS (BRSSS): 11 g ai/ha
GR90, BRSSS (BRSSS): 41 g ai/ha
pest or weed control at 35 g/ha (TRZSS): 60 to 74%
pest or weed control at 70 g/ha (TRZSS): 75 to 84%
pest or weed control at 140 g/ha (TRZSS): 75 to 84%
GR10, TRZSS (TRZSS): 1 g ai/ha
GR20, TRZSS (TRZSS): 1 g ai/ha
pest or weed control at 35 g/ha (HORSS): 60 to 74%
pest or weed control at 70 g/ha (HORSS): 75 to 84%
pest or weed control at 140 g/ha (HORSS): 85 to 94%
GR10, HORSS (HORSS): 1 g ai/ha
GR20, HORSS (HORSS): 2 g ai/ha
Visual Growth Reduction (%) 21 Days After Application, LAMPU ([1]; 35 g ai/ha): A (95-100)
Visual Growth Reduction (%) 21 Days After Application, LAMPU ([1]; 70 g ai/ha): A (95-100)
Visual Growth Reduction (%) 21 Days After Application, LAMPU ([1]; 140 g ai/ha): A (95-100)
GR50, LAMPU [1]: <17.5 g ai/ha
GR80, LAMPU [1]: <17.5 g ai/ha
GR90, LAMPU [1]: <17.5 g ai/ha

Nc1c(F)c(-c2ccc(C(F)(F)F)nc2)nc(C(=O)O)c1Cl [Compound 46, 4-amino-5-chloro-3-fluoro-6′-(trifluoromethyl)-[2,3′-bipyridine]-6-carboxylic acid]
pest or weed control at 35 g/ha (APESV (windgrass)): 60 to 74%
pest or weed control at 70 g/ha (APESV (windgrass)): 75 to 84%
pest or weed control at 140 g/ha (APESV (windgrass)): 85 to 94%
GR50, APESV (APESV (windgrass)): 37 g ai/ha
GR80, APESV (APESV (windgrass)): 78 g ai/ha
GR90, APESV (APESV (windgrass)): 115 g ai/ha
pest or weed control at 35 g/ha (KCHSC (kochia)): 60 to 74%
pest or weed control at 70 g/ha (KCHSC (kochia)): 60 to 74%
pest or weed control at 140 g/ha (KCHSC (kochia)): 85 to 94%
GR50, KCHSC (KCHSC (kochia)): 29 g ai/ha
GR80, KCHSC (KCHSC (kochia)): 104 g ai/ha
GR90, KCHSC (KCHSC (kochia)): >140 g ai/ha
Visual Growth Reduction (%) 21 Days After Application, POLCO (POLCO (wild buckwheat); 35 g ai/ha): E (45-59)
Visual Growth Reduction (%) 21 Days After Application, POLCO (POLCO (wild buckwheat); 70 g ai/ha): D (60-74)
Visual Growth Reduction (%) 21 Days After Application, POLCO (POLCO (wild buckwheat); 140 g ai/ha): D (60-74)
GR50, POLCO (POLCO (wild buckwheat)): 27 g ai/ha
GR80, POLCO (POLCO (wild buckwheat)): >140 g ai/ha
GR90, POLCO (POLCO (wild buckwheat)): >140 g ai/ha
Visual Growth Reduction (%) 21 Days After Application, BRSSS (BRSSS; 35 g ai/ha): D (60-74)
Visual Growth Reduction (%) 21 Days After Application, BRSSS (BRSSS; 70 g ai/ha): D (60-74)
Visual Growth Reduction (%) 21 Days After Application, BRSSS (BRSSS; 140 g ai/ha): C (75-84)
GR50, BRSSS (BRSSS): 11 g ai/ha
GR80, BRSSS (BRSSS): >140 g ai/ha
GR90, BRSSS (BRSSS): >140 g ai/ha
pest or weed control at 35 g/ha (TRZSS): 75 to 84%
pest or weed control at 70 g/ha (TRZSS): 75 to 84%
pest or weed control at 140 g/ha (TRZSS): 85 to 94%
GR10, TRZSS (TRZSS): 1 g ai/ha
GR20, TRZSS (TRZSS): 1 g ai/ha
pest or weed control at 35 g/ha (HORSS): 60 to 74%
pest or weed control at 70 g/ha (HORSS): 75 to 84%
pest or weed control at 140 g/ha (HORSS): 85 to 94%
GR10, HORSS (HORSS): 1 g ai/ha
GR20, HORSS (HORSS): 3 g ai/ha
Visual Growth Reduction (%) 21 Days After Application, LAMPU ([1]; 35 g ai/ha): D (60-74)
Visual Growth Reduction (%) 21 Days After Application, LAMPU ([1]; 70 g ai/ha): D (60-74)
Visual Growth Reduction (%) 21 Days After Application, LAMPU ([1]; 140 g ai/ha): A (95-100)
GR50, LAMPU [1]: 14 g ai/ha
GR80, LAMPU [1]: 47 g ai/ha
GR90, LAMPU [1]: 89 g ai/ha
